In test [1] the test system is aCD3/aCD28-stimulated human PBMCs. The test is described as follows: Cytokine production in aCD3/aCD28 stimulated human PBMCs. The class given is cell-based. The settings on record: PBMC, 18 h. The procedure, abridged:
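Ficoll-isolated human PBMCs at 1e6 cells/mL in X-Vivo15, stimulated with soluble anti-CD3/CD28 (OKT3 and 28.2, 1 μg/mL each) plus compound for 18 h at 37° C. Supernatant cytokines quantified by MSD or HTRF.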

For test [2], the system named is aCD3/aCD28-stimulated human CD4+-T-cells. Nature of the test: IL-2 production and activation markers in aCD3/aCD28 stimulated isolated human CD4+-T-cells. Type of test: cell-based. The settings on record: IL-2 production at 3 μM compound. In outline: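 CD4+ T cells isolated from buffy-coat PBMCs by microbeads were plated in Xvivo medium (1.5*10^5 cells/well) and stimulated with anti-CD3/28 mAbs plus compound. IL-2 measured by ELISA in supernatants at 24 h or 48 h; CD25 and proliferation by flow cytometry, CD69 at 24 h. Activity classes based on IL-2 at 3 μM compound.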

[3] abbreviates: enhancement of IFN-γ production, read-out: Activity Class IFN-γ.
The mark [4] stands for this setting: enhancement of IL-2 production, read-out: Activity Class IL-2.

We go through 16 compounds from patent US10472341B2, “Bicyclic tetrahydrothiazepine derivatives useful for the treatment of neoplastic and/or infectious diseases” (APEIRON BIOLOGICS AG, priority 2015, dated 2019).

pEC50: −log10 of the molar value. Like-named read-outs stand apart in the source and are kept apart here. Some results are limits rather than exact numbers.

As for `Cl.N[C@H]1CSc2ccc(C(=O)NCC3CCCOC3)cc2N(Cc2ccc(Cl)cc2)C1=O` (stereo partly drawn) [Example 28, (3R)-3-amino-5-[(4-chlorophenyl)methyl]-N-(oxan-3-ylmethyl)-4-oxo-2,3,4,5-tetrahydro-1,5-benzothiazepine-7-carboxamide hydrochloride], the pEC50 in test [1] (setting [3]) is 5.30 to 5.80; in test [1] (setting [4]) it was below 5.30. In addition, the “Activity Class CD4+” value in test [2] is “C (IL-2 production at 3 μM compound concentration between 2-fold increase as compared to mean IL-2 production of stimulated cells in the absence of compounds and <2 ng/mL)”.
Consider `Cl.N[C@H]1CSc2ccc(C(=O)NCCCC(F)(F)F)cc2N(Cc2ccc(OC(F)(F)F)cc2)C1=O` [Example 29, (3R)-3-amino-4-oxo-N-(4,4,4-trifluorobutyl)-5-{[4-(trifluoromethoxy)phenyl]methyl}-2,3,4,5-tetrahydro-1,5-benzothiazepine-7-carboxamide hydrochloride], for which the pEC50 in test [1] (setting [3]) and in test [1] (setting [4]) was above 5.80 each time. The “Activity Class CD4+” value in test [2] is “B (IL-2 production at 3 μM compound concentration between 2-10 ng/mL)”.
In the case of `Cl.N[C@H]1CSc2ccc(C(=O)NCC3CCOCC3)cc2N(Cc2ccc(OC(F)(F)F)cc2)C1=O` [Example 30, (3R)-3-amino-N-(oxan-4-ylmethyl)-4-oxo-5-{[4-(trifluoromethoxy)phenyl]methyl}-2,3,4,5-tetrahydro-1,5-benzothiazepine-7-carboxamide hydrochloride], the pEC50 was below 5.30 in test [1] (setting [3]) and 5.30 to 5.80 in test [1] (setting [4]). In addition, the “Activity Class CD4+” value in test [2] is on record as “B (IL-2 production at 3 μM compound concentration between 2-10 ng/mL)”.
`Cl.N[C@H]1CSc2ccc(C(=O)NCc3ccc(F)cc3)cc2N(Cc2ccc(OC(F)(F)F)cc2)C1=O` [Example 31, (3R)-3-amino-N-[(4-fluorophenyl)methyl]-4-oxo-5-{[4-(trifluoromethoxy)phenyl]-methyl}-2,3,4,5-tetrahydro-1,5-benzothiazepine-7-carboxamide hydrochloride]: the pEC50 in test [1] (setting [3]) and in test [1] (setting [4]) was above 5.80 in each case. Also, in test [2], the “Activity Class CD4+” value is listed as “B (IL-2 production at 3 μM compound concentration between 2-10 ng/mL)”.
As for `Cl.N[C@H]1CSc2ccc(C(=O)NC3CCC(F)(F)CC3)cc2N(Cc2ccc(Cl)cc2)C1=O` [Example 33, (3R)-3-amino-5-[(4-chlorophenyl)methyl]-N-(4,4-difluorocyclohexyl)-4-oxo-2,3,4,5-tetrahydro-1,5-benzothiazepine-7-carboxamide hydrochloride], the pEC50 is above 5.80 in test [1] (setting [3]) and 5.30 to 5.80 in test [1] (setting [4]). The “Activity Class CD4+” value in test [2] is “B (IL-2 production at 3 μM compound concentration between 2-10 ng/mL)”.
Regarding `CC(NC(=O)c1ccc2c(c1)N(Cc1ccc(Cl)cc1)C(=O)[C@@H](N)CS2)c1ccc(F)cc1.Cl` (stereo partly drawn) [Example 34, (3R)-3-amino-5-[(4-chlorophenyl)methyl]-N-[1-(4-fluorophenyl)ethyl]-4-oxo-2,3,4,5-tetrahydro-1,5-benzothiazepine-7-carboxamide hydrochloride], the pEC50 in test [1] (setting [3]) and in test [1] (setting [4]) was 5.30 to 5.80 in each case. In addition, the “Activity Class CD4+” value in test [2] was “C (IL-2 production at 3 μM compound concentration between 2-fold increase as compared to mean IL-2 production of stimulated cells in the absence of compounds and <2 ng/mL)”.
For the compound `COc1ccc([C@H](C)NC(=O)c2ccc3c(c2)N(Cc2ccc(Cl)cc2)C(=O)[C@@H](N)CS3)cc1` [Example 35, (3R)-3-amino-5-[(4-chlorophenyl)methyl]-N-[(1S)-1-(4-methoxyphenyl)ethyl]-4-oxo-2,3,4,5-tetrahydro-1,5-benzothiazepine-7-carboxamide], the pEC50 in test [1] (setting [3]) and in test [1] (setting [4]) was below 5.30 in each case. Also, the “Activity Class CD4+” value in test [2] was “C (IL-2 production at 3 μM compound concentration between 2-fold increase as compared to mean IL-2 production of stimulated cells in the absence of compounds and <2 ng/mL)”.
Consider `Cl.N[C@H]1CSc2ccc(C(=O)NCCCC(F)(F)F)cc2N(Cc2ccc(C(F)(F)F)nc2)C1=O` [Example 36, (3R)-3-amino-4-oxo-N-(4,4,4-trifluorobutyl)-5-{[6-(trifluoromethyl)pyridin-3-yl]methyl}-2,3,4,5-tetrahydro-1,5-benzothiazepine-7-carboxamide hydrochloride], for which the results for the pEC50 in test [1] (setting [3]) and in test [1] (setting [4]) were above 5.80 and below 5.30, respectively. In test [2], the “Activity Class CD4+” value is “C (IL-2 production at 3 μM compound concentration between 2-fold increase as compared to mean IL-2 production of stimulated cells in the absence of compounds and <2 ng/mL)”.
As for `Cl.N[C@H]1CSc2ccc(C(=O)NCc3ccc(F)cc3)cc2N(Cc2ccc(C(F)(F)F)nc2)C1=O` [Example 37, (3R)-3-amino-N-[(4-fluorophenyl)methyl]-4-oxo-5-{[6-(trifluoromethyl)pyridin-3-yl]methyl}-2,3,4,5-tetrahydro-1,5-benzothiazepine-7-carboxamide hydrochloride], the pEC50 in test [1] (setting [3]) was below 5.30; in test [1] (setting [4]) it was 5.30 to 5.80. Besides, the “Activity Class CD4+” value in test [2] was “C (IL-2 production at 3 μM compound concentration between 2-fold increase as compared to mean IL-2 production of stimulated cells in the absence of compounds and <2 ng/mL)”.
As for `C[C@@H](NC(=O)c1ccc2c(c1)N(Cc1ccc(Cl)cc1)C(=O)[C@@H](N)CS2)c1ccc(F)cc1.Cl` [Example 38, (3R)-3-amino-5-[(4-chlorophenyl)methyl]-N-[(1R)-1-(4-fluorophenyl)ethyl]-4-oxo-2,3,4,5-tetrahydro-1,5-benzothiazepine-7-carboxamide hydrochloride], the pEC50 in test [1] (setting [3]) and in test [1] (setting [4]) was 5.30 to 5.80 in each case. In addition, the “Activity Class CD4+” value in test [2] was “C (IL-2 production at 3 μM compound concentration between 2-fold increase as compared to mean IL-2 production of stimulated cells in the absence of compounds and <2 ng/mL)”.
In the case of `Cl.N[C@H]1CSc2cc(F)c(C(=O)NCc3ccc(F)cc3)cc2N(Cc2ccc(Cl)cc2)C1=O` [Example 39, (3R)-3-amino-5-[(4-chlorophenyl)methyl]-8-fluoro-N-[(4-fluorophenyl)methyl]-4-oxo-2,3,4,5-tetrahydro-1,5-benzothiazepine-7-carboxamide hydrochloride], the pEC50 is above 5.80 in test [1] (setting [3]) and 5.30 to 5.80 in test [1] (setting [4]). Moreover, the “Activity Class CD4+” value in test [2] is reported as “B (IL-2 production at 3 μM compound concentration between 2-10 ng/mL)”.
Turning to `CCCCNC(=O)c1cc2c(cc1F)SC[C@H](N)C(=O)N2Cc1ccc(Cl)cc1.Cl` [Example 41, (3R)-3-amino-N-butyl-5-[(4-chlorophenyl)methyl]-8-fluoro-4-oxo-2,3,4,5-tetrahydro-1,5-benzothiazepine-7-carboxamide hydrochloride], the pEC50 in test [1] (setting [3]) is above 5.80; in test [1] (setting [4]), 5.30 to 5.80. For the same compound, the “Activity Class CD4+” value in test [2] is “C (IL-2 production at 3 μM compound concentration between 2-fold increase as compared to mean IL-2 production of stimulated cells in the absence of compounds and <2 ng/mL)”.
As for `Cl.N[C@H]1CSc2cc(F)c(C(=O)NCC3CCOCC3)cc2N(Cc2ccc(Cl)cc2)C1=O` [Example 42, (3R)-3-amino-5-[(4-chlorophenyl)methyl]-8-fluoro-N-(oxan-4-ylmethyl)-4-oxo-2,3,4,5-tetrahydro-1,5-benzothiazepine-7-carboxamide hydrochloride], the pEC50 was 5.30 to 5.80 in test [1] (setting [3]) and below 5.30 in test [1] (setting [4]). Besides, the “Activity Class CD4+” value in test [2] is “C (IL-2 production at 3 μM compound concentration between 2-fold increase as compared to mean IL-2 production of stimulated cells in the absence of compounds and <2 ng/mL)”.
Regarding `COc1ccc(CNC(=O)c2cc3c(cc2F)SC[C@H](N)C(=O)N3Cc2ccc(Cl)cc2)cc1.Cl` [Example 43, (3R)-3-amino-5-[(4-chlorophenyl)methyl]-8-fluoro-N-[(4-methoxyphenyl)methyl]-4-oxo-2,3,4,5-tetrahydro-1,5-benzothiazepine-7-carboxamide hydrochloride], the pEC50 was above 5.80 in test [1] (setting [3]) and 5.30 to 5.80 in test [1] (setting [4]). In addition, the “Activity Class CD4+” value in test [2] was “C (IL-2 production at 3 μM compound concentration between 2-fold increase as compared to mean IL-2 production of stimulated cells in the absence of compounds and <2 ng/mL)”.
Take `Cc1nc(-c2ccc(CN3C(=O)[C@@H](N)CSc4ccc(C(=O)NCC5CCOCC5)cc43)cc2)no1.Cl` [Example 44, (3R)-3-amino-5-{[4-(5-methyl-1,2,4-oxadiazol-3-yl)phenyl]methyl}-N-(oxan-4-ylmethyl)-4-oxo-2,3,4,5-tetrahydro-1,5-benzothiazepine-7-carboxamide hydrochloride]: the pEC50 is 5.30 to 5.80 in test [1] (setting [3]) and below 5.30 in test [1] (setting [4]). Also, in test [2], the “Activity Class CD4+” value was “C (IL-2 production at 3 μM compound concentration between 2-fold increase as compared to mean IL-2 production of stimulated cells in the absence of compounds and <2 ng/mL)”.
Regarding `CCCCNC(=O)c1ccc2c(c1)N(Cc1ccc(-n3cncn3)cc1)C(=O)[C@@H](N)CS2.Cl` [Example 46, (3R)-3-amino-N-butyl-4-oxo-5-{[4-(1H-1,2,4-triazol-1-yl)phenyl]methyl}-2,3,4,5-tetrahydro-1,5-benzothiazepine-7-carboxamide hydrochloride], the results for the pEC50 in test [1] (setting [3]) and in test [1] (setting [4]) were 5.30 to 5.80 and below 5.30, respectively. In test [2], the “Activity Class CD4+” value was “C (IL-2 production at 3 μM compound concentration between 2-fold increase as compared to mean IL-2 production of stimulated cells in the absence of compounds and <2 ng/mL)”.
